SMILES strings stand for the structures. Values after ≈ are worked out from the molar mass of the structure shown. Some results are limits rather than exact numbers.

For the data set the following is noted: buffer; pH 7.4; 200.0 µM.
Molecule `COc1ccccc1CNC(=O)COC(=O)/C=C/c1ccc2c(c1)OCO2` showed a kinetic solubility of 5.4 µg/mL (≈ 14.6 µM). Next, `O=C(O)CC(C(=O)Nc1ccc(Cl)cc1)N1CCCCCC1` (stereo not drawn): more than 48.7 µg/mL. Next, `Cl.N[C@H]1C(O)O[C@H](CO)[C@@H](O)[C@@H]1O` (stereo partly drawn): more than 32.3 µg/mL; `COc1ccccc1CNC(=O)CS(=O)(=O)Cc1ccccc1`: 41.4 µg/mL (≈ 124 µM); `CC(C)(C#CC(O)(c1ccccc1)c1ccccc1)N1CCCC1.Cl`: more than 53.4 µg/mL. The figure for `Cc1ccc(NC(=O)COc2cccc3ccccc23)c(O)c1` is 3.8 µg/mL (≈ 12.4 µM); for `CCN(C(=O)N1CCOCC1)c1ccccc1` it is 34.7 µg/mL (≈ 148 µM); for `COc1ccc(-c2csc3nc(-c4ccccc4F)oc(=O)c23)cc1` it is less than 0.8 µg/mL. Turning to `Cc1cccc(NC(=O)COC(=O)c2ccccn2)c1`, the solubility (kinetic) was 34.9 µg/mL (≈ 129 µM). The figure for `Cc1cccc(-n2cnc3sc(C)c(C)c3c2=O)c1` is 2.5 µg/mL (≈ 9.25 µM); for `O=C(CSc1ncn[nH]1)NCCc1ccc(Cl)cc1` it is more than 44.5 µg/mL; for `CC(=O)Nc1ccc(NC(C)=O)c(NC2OCC(O)C(O)C2O)c1` (stereo not drawn) it is more than 50.9 µg/mL. Next, `O=C1COc2ccc(C(=O)COC(=O)c3ccccc3Cl)cc2N1`: 4.5 µg/mL (≈ 13 µM); `CC(O)Cn1c(N2CCCC2)nc2c1c(=O)[nH]c(=O)n2C` (stereo not drawn): 41.4 µg/mL (≈ 141 µM). Next, `CNC(=S)Nc1cccc(S(=O)(=O)NC2=NCCC2)c1`: 45.7 µg/mL (≈ 146 µM). For `COc1ccc(S(=O)(=O)N2CCN(C(=O)C3CCCCC3)CC2)cc1`, the kinetic solubility amounted to 53.7 µg/mL (≈ 147 µM). `C(=C\c1ccc2ccccc2n1)/c1ccccc1` came in with a solubility (kinetic) of 0.5 µg/mL (≈ 2.16 µM).

In turn, `Cc1ccc(NC(=O)c2cccnc2C(=O)Nc2ccc(C)cc2)cc1` returned a solubility (kinetic) of 1.9 µg/mL (≈ 5.5 µM). The figure for `Cc1ccc(C2C(C#N)=C(N)Oc3cc(C)oc(=O)c32)o1` (stereo not drawn) is more than 42.6 µg/mL; for `O=C1CC(c2cccs2)c2ccc3ccccc3c2N1` (stereo not drawn) it is less than 0.6 µg/mL. The figure for `O=C(NCCN1CCCCC1)c1ccc(/C=N/O)nc1` is 40.7 µg/mL (≈ 147 µM). Next, `COc1cccc(NC(=O)c2ccccc2NC(=O)c2ccncc2)c1`: 29.1 µg/mL (≈ 83.8 µM); `COc1ccc(CNc2ncnc3c2[nH]c2ccccc23)cc1`: 0.2 µg/mL (≈ 0.657 µM); `CCOC(=O)N1CCN(CC(c2ccccc2)c2ccccc2)CC1`: 25.6 µg/mL (≈ 75.6 µM). Molecule `CC(C)CC(C(=O)Nc1cccc(O)c1)N1C(=O)c2ccccc2C1=O` (stereo not drawn) registered a kinetic solubility of more than 52.9 µg/mL. The figure for `CCOc1ccc(NC(=O)CNc2cccc(S(=O)(=O)N3CCCCCC3)c2)cc1OCC` is 18.8 µg/mL (≈ 39.5 µM). The figure for `CN(C(=O)CSc1nc(N)cc(N)n1)C1CCS(=O)(=O)C1` (stereo not drawn) is 41 µg/mL (≈ 124 µM). The figure for `CCOC(=O)C1(Cc2ccccc2)CCCN(Cc2ccncc2)C1` (stereo not drawn) is 31.3 µg/mL (≈ 92.5 µM); for `COc1ccc(NC(=O)c2cc(-c3cccs3)on2)cc1` it is 0.3 µg/mL (≈ 0.999 µM).

`Cc1csc(SCC(=O)NC(C)C2CC3CCC2C3)n1` (stereo not drawn) returned a kinetic solubility of more than 46.6 µg/mL. Next, `O=C1CN(C(=O)COC(=O)CCC(=O)c2ccc(Cl)cc2)c2ccccc2N1`: 57.2 µg/mL (≈ 143 µM). Next, `COc1ccc(CN(C)C(=S)Nc2ccc(Cl)cc2)cc1`: 13.5 µg/mL (≈ 42.1 µM); `CC(=O)c1ccc(NS(=O)(=O)c2ccc3c(c2)CCC(=O)N3)cc1`: 48.3 µg/mL (≈ 140 µM); `O=C(Nc1cccnc1)c1ccccc1-c1ccccc1`: more than 41.1 µg/mL.

In turn, `S=C(c1c[nH]c2ccccc12)N1CCOCC1` displayed a solubility (kinetic) of more than 36.9 µg/mL. The figure for `O=[N+]([O-])c1ccc(OCc2cnc(Cl)s2)c([N+](=O)[O-])c1` is 4.7 µg/mL (≈ 14.9 µM); for `O=C(COC(=O)c1cc(Cl)ccc1O)Nc1cc(C(F)(F)F)ccc1N1CCOCC1` it is 3.5 µg/mL (≈ 7.63 µM); for `Cc1cc(C)nc(NC(=O)c2cccs2)c1` it is 22.6 µg/mL (≈ 97.3 µM). Next, `Cc1ccc(C2=N/C(=C\c3ccc(F)cc3)C(=O)N2)cc1`: 0.7 µg/mL (≈ 2.5 µM); `COC(=O)c1cnc[nH]1`: more than 18.9 µg/mL. Molecule `COc1ccccc1C(=O)OC1CCCN(C)C1.Cl` (stereo not drawn) had a solubility (kinetic) of more than 42.9 µg/mL. The figure for `COc1c(C)cc(S(=O)(=O)NCCN2CCOCC2)c(C)c1C` is 46.4 µg/mL (≈ 135 µM); for `Cc1ccc(NC(=O)CN2CCOCC2)cc1C` it is 35.1 µg/mL (≈ 141 µM); for `O=C(c1ccc([N+](=O)[O-])cc1)N(c1ccccn1)c1ccccn1` it is more than 48 µg/mL. The figure for `COc1cccc(C2Nc3ccccc3NC3=C2C(=O)CC(C)(C)C3)c1` (stereo not drawn) is 40.2 µg/mL (≈ 115 µM). Next, `CC(=O)N1CCC(C(=O)Nc2ccc3c(c2)CCC3)CC1`: more than 43 µg/mL. Take `O=C(Nc1ccc(NC(=O)C2CC2)cc1)c1ccco1`: the kinetic solubility was more than 40.5 µg/mL. The figure for `CC1CCCN(CC(O)COc2ccc(-c3ccccc3)cc2)C1` (stereo not drawn) is 44.4 µg/mL (≈ 136 µM); for `O=C(Nc1cccnc1Cl)c1cc2ccccc2o1` it is 7.3 µg/mL (≈ 26.8 µM). The figure for `Cc1ccc(S(=O)(=O)CC(=O)NC(C)c2ccccc2)cc1` (stereo not drawn) is 42.4 µg/mL (≈ 134 µM). The figure for `C=CCNC(=O)N1CCCC(C(=O)c2cccc(OC(C)C)c2)C1` (stereo not drawn) is more than 49.6 µg/mL. The molecule `CC(=O)c1ccccc1NS(=O)(=O)c1cccc2nsnc12` displayed a kinetic solubility of 1.5 µg/mL (≈ 4.5 µM). The figure for `CCc1ccc(NC(=O)C(=O)NCC2CCCO2)cc1` (stereo not drawn) is 18.5 µg/mL (≈ 66.9 µM). The figure for `O=c1[nH]c2ccccc2n1CCCN1CCC(n2c(=O)[nH]c3cc(Cl)ccc32)CC1` is 50.4 µg/mL (≈ 118 µM). Next, `Cn1cnc2cc(NCc3ccccc3O)ccc21`: 36.9 µg/mL (≈ 146 µM); `O=Cc1cccn1-c1nccc(-c2ccco2)n1`: 24.7 µg/mL (≈ 103 µM); `COC(=O)C1C(c2ccccc2)NC(=O)NC1(O)C(F)(F)Cl` (stereo not drawn): more than 50.2 µg/mL. On to `COC(=O)CN1C(=O)c2cccc3cccc1c23`, for which the solubility (kinetic) was more than 36.2 µg/mL. Regarding `COc1ccc(OC)c(/C=C/C(=O)OCC(=O)N2CCCCC2)c1`, the kinetic solubility was more than 50 µg/mL. The figure for `COc1cccc(-c2noc(-c3ccc(Br)o3)n2)c1` is 0.5 µg/mL (≈ 1.56 µM); for `Cc1ccccc1NC(=O)c1ccccn1` it is 28.9 µg/mL (≈ 136 µM). The figure for `COC(=O)c1ccc(C(=O)OC)c(NC(=O)c2cccnc2)c1` is 2.3 µg/mL (≈ 7.32 µM); for `Fc1cccc(Nc2ncnc3sccc23)c1` it is 5.7 µg/mL (≈ 23.2 µM); for `CN(C(=S)Nc1ccc(Oc2ccccc2)cc1)c1ccc(O)cc1` it is more than 52.6 µg/mL.

In turn, `C=CCn1c(C)nc2ccccc2c1=O` returned a kinetic solubility of more than 30 µg/mL.

On to `Cc1ccc(CNC(=S)NC2CCC(C(C)(C)C)CC2)cc1` (stereo not drawn), for which the kinetic solubility was less than 0.3 µg/mL. Next, `Cc1cc(C)c(C)c(S(=O)(=O)N(C)CCc2ccccn2)c1C`: more than 49.9 µg/mL. The figure for `CC(C)Oc1ccccc1C1NC(=O)CCC1[N+](=O)[O-]` (stereo not drawn) is more than 41.7 µg/mL; for `CC(C)OCCCNC(=O)COc1ccc2oc3c(c2c1)CCCC3` it is 48.1 µg/mL (≈ 139 µM); for `Cc1csc(NC(=O)c2cc3ccccc3o2)n1` it is 16 µg/mL (≈ 61.9 µM). Next, `O=C(OCN1C(=O)C(=O)c2ccccc21)c1ccc(Cl)cc1`: 44 µg/mL (≈ 139 µM); `COc1ccc(C(=O)NCC2(c3ccccc3)CCCC2)c(OC)c1`: 3.8 µg/mL (≈ 11.2 µM). In turn, `CCc1nc(SCC(=O)Nc2ccc(N(C)C)cc2)n[nH]1` returned a solubility (kinetic) of more than 45.8 µg/mL. Next, `Cc1ccc(-n2nc(-c3ccco3)cc2C(=O)O)cc1`: more than 40.2 µg/mL.

`COc1ccc2nc(NC(=O)c3ccccc3F)sc2c1`: the kinetic solubility worked out at 0.5 µg/mL (≈ 1.65 µM). Next, `Cc1ccccc1-c1nc2ccccc2c(=O)n1C`: 35.8 µg/mL (≈ 143 µM); `CC1(c2ccccc2)NC(=O)N(CC#N)C1=O` (stereo not drawn): 34.3 µg/mL (≈ 150 µM). Take `CCCCCCCOc1ccc(C(=O)Nc2cccnc2)cc1`: the kinetic solubility was less than 0.3 µg/mL. Next, `CCCN(CCC)Cc1cc(=O)oc2cc3c(cc12)CCC3`: less than 0.6 µg/mL; `COC(=O)c1ccc(C2Nc3cccc4cccc(c34)N2)cc1`: 3.5 µg/mL (≈ 11.5 µM). The figure for `Cc1cc(C)nc(SCC(=O)NC(=O)c2ccccc2O)n1` is more than 47.6 µg/mL; for `O=C(COC(=O)c1ccc(O)cc1)Nc1ccccc1` it is more than 40.7 µg/mL. Next, `Cc1ccc(NC(=O)COC(=O)Cc2ccc(Br)cc2)cc1S(=O)(=O)N1CCOCC1`: 12.4 µg/mL (≈ 24.2 µM).

The molecule `CCOc1ccc(N=Cc2c(O)n(Cc3ccccc3)c(=S)[nH]c2=O)cc1` yielded a kinetic solubility of 0.5 µg/mL (≈ 1.31 µM). Next, `NC(=O)c1sc2nc(-c3cccs3)ccc2c1N`: 6.1 µg/mL (≈ 22.2 µM); `Cc1c(C(=O)NN2CCOCC2)cccc1[N+](=O)[O-]`: more than 39.8 µg/mL; `CSCCC(NC(=O)c1cccc(C)c1)C(=O)O` (stereo not drawn): more than 40.1 µg/mL. The figure for `CCN(CC(=O)NCc1cccs1)C(=O)c1ccc(S(=O)(=O)N(C)c2ccccc2)cc1` is more than 70.7 µg/mL; for `CCCOc1ccc(/C=C2/C(=O)ON=C2C)cc1OCC` it is 36.8 µg/mL (≈ 127 µM); for `O=C(CCCCCl)Nc1c2c(nc3ccccc13)CCC2` it is 31.6 µg/mL (≈ 104 µM). The figure for `Cc1ccc(C)c(-n2c(=O)c(C#N)cc3c(=O)n4ccccc4nc32)c1` is 6.2 µg/mL (≈ 18.1 µM); for `Cc1ccc(-c2csc(NC(=O)c3ccc([N+](=O)[O-])o3)n2)cc1` it is 1.2 µg/mL (≈ 3.64 µM); for `N#CCN1CCC2(O)CCCCC2C1c1ccc2c(c1)OCO2` (stereo not drawn) it is 42 µg/mL (≈ 134 µM). `O=C(Cc1ccc(Cl)cc1)Nc1cccnc1`: the solubility (kinetic) worked out at 23.3 µg/mL (≈ 94.4 µM). Next, `COc1ccc(CC(=O)Nc2ccc(S(=O)(=O)N3CCCC3)cc2)cc1OC`: more than 60.7 µg/mL; `CCOc1ccc(C2/C(=C(/O)c3ccc4c(c3)CC(C)O4)C(=O)C(=O)N2CC2CCCO2)cc1` (stereo not drawn): 61.8 µg/mL (≈ 133 µM). The figure for `Cn1c(SCC(=O)O)nc2sc3c(c2c1=O)CCC3` is more than 44.5 µg/mL; for `O=C(NCCc1ccccc1)c1ccc(NC(=O)c2cccnc2)cc1` it is 4.3 µg/mL (≈ 12.4 µM); for `Cc1cccc(Cn2c(C)nc3ccc([N+](=O)[O-])cc3c2=O)c1` it is 3.6 µg/mL (≈ 11.6 µM). Next, `CCOC(=O)c1sc2nc(C)nc(NCc3ccccc3)c2c1C`: 0.3 µg/mL (≈ 0.879 µM); `COC(=O)c1ccc(NC(=O)C2CC(=O)OC2c2ccccc2)cc1` (stereo not drawn): 36 µg/mL (≈ 106 µM). Consider `Cc1onc(C(=O)Nc2ccccc2C(F)(F)F)c1[N+](=O)[O-]`, for which the kinetic solubility is more than 47.3 µg/mL. The figure for `O=C1NC2(CCCCCC2)C(=O)N1Cc1ccccc1Br` is 17.1 µg/mL (≈ 48.7 µM).

As usually defined, the kinetic solubility is the concentration staying in solution when a stock, usually in DMSO, is diluted into the medium.
